Assay results from article PMC8379256, “A xanthene derivative, DS20060511, attenuates glucose intolerance by inducing skeletal muscle-specific GLUT4 translocation in mice” (Communications Biology, 2021).
“And” between values parts separate entries of the source, which are not always exact repeats. Identical values can stand only once.

System: L6-GLUT4myc myotubes
Experiment: GLUT4 translocation: cell surface GLUT4myc by anti-Myc antibody assay in L6-GLUT4myc myotubes
Assay type: cell-based, rat
Set-up: key to GLUT4 translocation: fold of vehicle-treated group
Description: The L6-GLUT4myc rat myoblast cell line was obtained from Dr. Amira Klip and Dr. Philip Bilan, through a license granted by The Hospital for Sick Children, 555 University Avenue, Toronto, Ontario, Canada M5G 1 × 8; or purchased from Kerafast, Boston, MA (ESK202)[43]. The 3T3-L1-GLUT4myc fibroblast cell line was provided by Dr. Tomoyuki Yuasa, Tokushima University[44]. L6-GLUT4myc myoblasts were grown in MEMα (32571036, Thermo Fisher Scientific, Waltham, MA) supplemented with 10% FBS and 1% antibiotics, and then induced to differentiate into myotubes in MEMα supplemented with 2% FBS and 1% antibiotics for 5–8 days. 3T3-L1-GLUT4myc fibroblasts were induced to differentiate into adipocytes as described previously,[45] with minor modifications. Briefly, cells were grown to confluence in growth medium: DMEM (10569010, Thermo Fisher Scientific) supplemented with 10% FBS and 1% antibiotics, and then induced to differentiate into adipocytes in growth medium supplemented with 1 μM dexamethasone, 2 μM rosiglitazone, 0.5 mM isobutylmethylxanthine, and 10 μg mL^−1 insulin for 2 days. The adipocytes were then cultured in growth medium supplemented with 10 μg mL^−1 insulin for a few days before being used for the experiments.
Cell surface GLUT4 levels in the L6-GLUT4myc myoblasts and myotubes were determined by antibody binding assay as described previously[43],[44], with minor modifications. Briefly, cells in a 96- or 24-well plate were starved in serum-free MEMα (0.1% BSA and 1% antibiotics) for 3 h and then treated with the indicated concentrations of DS20060511 and/or insulin for 30 min at 37 °C. After fixation with 4% paraformaldehyde, the cells were incubated with 1% glycine in PBS at 4 °C for 10 min, and blocked with 10% normal goat serum and 3% BSA in PBS at 4 °C for 30 min. The cells were then incubated with anti-c-Myc antibody (sc-40, 1:500) diluted with blocking buffer at 4 °C for 1 h, washed with cold PBS(+), incubated with HRP-conjugated anti-mouse IgG diluted with blocking buffer at 4 °C for 30 min, and then washed again. SuperSignal ELISA Pico Chemiluminescent Substrate (Thermo Fisher Scientific) was added and the luminescent signal was measured. To investigate GLUT4 translocation in the 3T3-L1-GLUT4myc adipocytes, the cells were prepared in a 24-well plate, and anti-c-Myc antibody (sc-789, 1:1000), HRP-conjugated anti-rabbit IgG and SIGMAFAST OPD regent (Sigma–Aldrich) were added for optical detection of the cell surface GLUT4myc levels. The GLUT4 translocation activity was normalized to that in the vehicle-treated group.

## C/C1=C/C(=O)O[C@@H]2C[C@@H](CC[C@H](C)/C=C\CC1)O[C@@](O)([C@@H]1CSC(=O)N1)C2 [Latrunculin B, reference compound]
100 nM insulin, Latrunculin B 10-200 nM, Fig. 4d
  effect on GLUT4 translocation induced by insulin: suppressed GLUT4 translocation induced by insulin
30 μM DS20060511, Latrunculin B 10-200 nM, Fig. 4d
  effect on GLUT4 translocation induced by DS20060511: not that induced by DS20060511 treatment
Control (no insulin or DS20060511), Latrunculin B 10 nM
  GLUT4 translocation: 1.16 and 0.86 and 0.98
Control, Latrunculin B 30 nM
  GLUT4 translocation: 0.98 and 1.11 and 0.90
Control, Latrunculin B 100 nM
  GLUT4 translocation: 1.11 and 0.92 and 0.97
Control, Latrunculin B 200 nM
  GLUT4 translocation: 1.06 and 1.00 and 0.94
